In patent US12102685B2, “Immodulator peptides covalently modified with small molecules” (priority 2020, dated 2024):
Peptide text beside a SMILES is read from it.

Experiments:
[1] = FITC-PI(4,5)P2 binding at pH5.2 with metals and cold PPI (x9D)
Procedure: To a streptavidin-coated 96-well plate, 400 ng peptide IM3 or IM5 were bound per well. Each well received 100 uL of sodium acetate buffer pH5.2 containing 500 uM EDTA, Calcium Chloride, Zinc Chloride or Ferric Chloride. Each well additionally contained 50 ng FITC-PI(4,5)P2 plus 2 ug of either cold PI(3,4)P2, PI(4,5)P2, PI(3,5)P2 or buffer. All assays were done in sextuplicate. After incubation at room temperature for 60 mins, wells were washed and counted in a fluorometer set at FITC excitation/emmission wavelengths.

full-length huNur77 = molecular target: T1, full-length huNur77 (Homo sapiens, UniProt P22736); assay: Binding to full-length huNur77 (x3C); conditions: 333 ng/well labelled peptide
T1 construct: purchased Abcam, Cambridge, MA
T1 sequence (P22736 whole entry): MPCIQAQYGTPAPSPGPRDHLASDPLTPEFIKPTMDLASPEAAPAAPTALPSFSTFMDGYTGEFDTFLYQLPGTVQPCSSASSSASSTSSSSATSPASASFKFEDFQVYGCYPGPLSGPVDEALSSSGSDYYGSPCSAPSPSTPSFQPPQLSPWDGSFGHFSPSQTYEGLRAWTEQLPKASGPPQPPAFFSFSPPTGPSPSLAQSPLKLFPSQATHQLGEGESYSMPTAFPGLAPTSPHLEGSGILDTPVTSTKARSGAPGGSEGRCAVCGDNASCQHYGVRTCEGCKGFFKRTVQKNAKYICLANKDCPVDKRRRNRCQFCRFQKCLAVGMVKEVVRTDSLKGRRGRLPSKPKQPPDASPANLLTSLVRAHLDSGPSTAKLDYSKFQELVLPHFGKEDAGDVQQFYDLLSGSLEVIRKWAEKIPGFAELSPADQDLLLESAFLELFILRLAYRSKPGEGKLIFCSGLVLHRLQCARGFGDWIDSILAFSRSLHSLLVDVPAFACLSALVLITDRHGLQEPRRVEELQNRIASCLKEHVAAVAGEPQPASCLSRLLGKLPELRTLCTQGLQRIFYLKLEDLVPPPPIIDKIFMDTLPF
Procedure: 400 ng/well recombinant Nur77 (Abcam, Cambridge, MA) was adsorbed to wells of a 96-well plate for 90 minutes at RT, then blocked with 200 uL 1% BSA in PBS buffer overnight. Plate was washed and 333 ng/well Streptavidin-Alexa 488 conjugate (SA488)-labelled IM3, IM4 or no peptide was added. The plate was incubated for 60 min at room temperature, washed and counted in a standard fluorometer (excitation/emission 485/525 nm). Background (buffer alone) was subtracted.

[2] = Alexa488-SA-labelled IM3 binding to metal-charged NTA-coated plate (x2B c)
Procedure: (§1) NTA-metal-affinity fluorescence assay was performed using 96-well NTA-metal-coated plates readily available from commercial sources such as Qiagen (Germantown, MD). NTA was charged with ferrous or ferric iron, zinc, copper, calcium, vanadium, ruthenium, cobalt, titanium, manganese or other metals. 400 ng of FITC-labeled immodulator peptide (or biotinylated immodulator peptide complexed to Alexa-488-labeled streptavidin) in PBS buffer was added per plate. After incubation at room temperature for 60 minutes, excess peptide was washed off and peptide was detected by measuring fluorescence (excitation 490 nm, emmission 525 nm) in a fluorometer. • (a) Using FITC-labeled IM3 peptide (1 ug/well) in the fluorescent binding assay: • EDTA-treated control: 2,251±1,186 • Ferrous iron: 170,441±11,264 (p<0.001)* • Copper: 13,644±5566 (p<0.05)* • Calcium: 48,822±11,990 (p<0.01)* • *p values are relative to EDTA-treated control • (b) Competition binding assay to ferrous iron, calcium, copper and zinc-charged NTA-coated plates using FITC-labeled IM3 peptide (0.5 uM) and 8× (4 uM) unlabelled competitor peptides IM3N1, IM3N2 (*all comparisons to PBS control are p<0.01); # fluorescent value of binding to […] was set at 100.
• (c) Alexa488-SA-labelled immodulator peptide IM3 (400 ng/well) bound to NTA-coated plate charged with the indicated metals: # fluorescent value of binding to ferrous iron was set at 100. *p<0.01 relative to control.
Ferrous iron # (100±2.6*); Control (no metal): 6.4±3.1; Ferric iron: 94.1±6.6*; Calcium: 47.6±3.7*; Vanadium: 53.9±5.5*; Manganese: 54.4±11.2*; Cobalt: 25.4±2.3*; Copper: 58.4±6.4*; Zinc: 71.4±8.3*; Ruthenium: 67.8±8.3*; (d) Alexa488-SA-labelled immodulator peptide IM1, IM2, IM3, IM4, IM5, IM6 (400 ng/well) were bound to NTA-coated plate charged with the indicated metals: # background (no peptide) control set to 1.0;*p<0.05, **p<0.01 vs “no peptide”

[3] = Competition binding assay to metal-charged NTA-coated plates (x2B b)
Procedure: as §1

[4] = FITC-PI(4)P1 binding to plate-bound peptide with calcium (x9A)
Procedure: Immodulator peptides IM1, IM3 and IM5 (400 ng/well) in PBS were bound to streptavidin-coated 96-well plates at room temperature for 60 minutes, in the presence or absence of 500 uM calcium chloride. Each well also received 200 ng cold PPI plus 10 ng FITC-labeled PI(4,5)P2 or PI(4)P1. The tables below show the relative fluorescence (with/without calcium background) expressed as a percentage of the highest binder, FITC-PI(4,5)P2+cold PI(3,5)P2, which was 2,496 fluorescence units. Background binding without calcium was, in all cases, 200-300 fluorescence units.

[5] = molecular target: T2, DNA-binding domain (DBD) of RXR-alpha (Homo sapiens, UniProt P19793); assay: Binding to RXRa-DBD with or without ferric iron (x3B)
T2 construct: purchased Abcam, Cambridge, MA
T2 sequence (P19793 111-228): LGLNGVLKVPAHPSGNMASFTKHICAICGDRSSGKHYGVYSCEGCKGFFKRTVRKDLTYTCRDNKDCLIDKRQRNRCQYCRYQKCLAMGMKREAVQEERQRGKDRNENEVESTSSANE
Procedure: Experiment x3B. Binding of immodulator peptides to DNA-binding domain (DBD) of RXR-alpha, with or without ferric iron. 100 ng/well recombinant RXRa-DBD (Abcam, Cambridge, MA) was adsorbed to wells of a 96-well plate for 60 minutes at RT, then blocked with 200 uL 1% BSA in PBS buffer overnight. Plate was washed and 800 ng/well Streptavidin-Alexa 488 conjugate (SA488)-labelled IM peptide was added, with or without ferric chloride (5 uM) or 5-fold excess RXRa-DBD. The plate was incubated for 2 hours at room temperature, washed and counted in a standard fluorometer (excitation/emission 485/525 nm).

Question: For `N=C(N)NCCC[C@H](NC(=O)CNC(=O)[C@H](CCCCN)NC(=O)[C@H](CO)NC(=O)[C@@H]1CCCN1C(=O)[C@H](CCCNC(=N)N)NC(=O)[C@H](CS)NC(=O)[C@H](CCC(N)=O)NC(=O)[C@H](CCCCN)NC(=O)[C@H](CCCCN)NC(=O)[C@H](CCCCN)NC(=O)[C@H](Cc1ccc(O)cc1)NC(=O)[C@H](Cc1ccccc1)NC(=O)CNC(=O)[C@H](CCCCN)NC(=O)[C@@H](N)CCCCN)C(=O)N[C@@H](CCCCN)C(=O)N[C@@H](CCCNC(=N)N)C(=O)NCC(=O)N[C@@H](Cc1ccccc1)C(=O)N[C@@H](CS)C(=O)N[C@@H](Cc1c[nH]c2ccccc12)C(=O)O` [IM3] (H-KKGFYKKKQCRPSKGRKRGFCW-OH; N-terminus and C-terminus assumed), which “fluorescence, FITC-PI(4,5)P2 bound” value ([1]; Buffer, Calcium) is on record?
Answer: 142 ± 29

Question: What about the “fluorescence, FITC-PI(4,5)P2 bound” value ([1]; Buffer, EDTA) of the same compound?
Answer: 30 ± 22

Question: And the “fluorescence, FITC-PI(4,5)P2 bound” value ([1]; Buffer, Ferric Iron)?
Answer: 772 ± 168

Question: And the “fluorescence, FITC-PI(4,5)P2 bound” value ([1]; Buffer, Zinc)?
Answer: 138 ± 388

Question: And the “fluorescence, FITC-PI(4,5)P2 bound” value ([1]; Cold PI(3,4)P2, Calcium)?
Answer: 48 ± 61

Question: And the “fluorescence, FITC-PI(4,5)P2 bound” value ([1]; Cold PI(3,4)P2, EDTA)?
Answer: 26 ± 25

Question: What about the “fluorescence, FITC-PI(4,5)P2 bound” value ([1]; Cold PI(3,4)P2, Ferric Iron) of the same compound?
Answer: 2,162 ± 269

Question: And the “fluorescence, FITC-PI(4,5)P2 bound” value ([1]; Cold PI(3,4)P2, Zinc)?
Answer: 65 ± 16

Question: And the “fluorescence, FITC-PI(4,5)P2 bound” value ([1]; Cold PI(3,5)P2, Calcium)?
Answer: 88 ± 22

Question: And the “fluorescence, FITC-PI(4,5)P2 bound” value ([1]; Cold PI(3,5)P2, EDTA)?
Answer: 63 ± 26

Question: What about the “fluorescence, FITC-PI(4,5)P2 bound” value ([1]; Cold PI(3,5)P2, Ferric Iron) of the same compound?
Answer: 2,036 ± 303

Question: And the “fluorescence, FITC-PI(4,5)P2 bound” value ([1]; Cold PI(3,5)P2, Zinc)?
Answer: 118 ± 43

Question: And the “fluorescence, FITC-PI(4,5)P2 bound” value ([1]; Cold PI(4,5)P2, Calcium)?
Answer: 32 ± 23

Question: What about the “fluorescence, FITC-PI(4,5)P2 bound” value ([1]; Cold PI(4,5)P2, EDTA) of the same compound?
Answer: 10 ± 16

Question: What about the “fluorescence, FITC-PI(4,5)P2 bound” value ([1]; Cold PI(4,5)P2, Ferric Iron) of the same compound?
Answer: 1,464 ± 320

Question: What about the “fluorescence, FITC-PI(4,5)P2 bound” value ([1]; Cold PI(4,5)P2, Zinc) of the same compound?
Answer: 21 ± 22

Question: What about the fluorescence (full-length huNur77; Nur77 400 ng/well) of the same compound?
Answer: 488 ± 38

Question: What about the fluorescence (full-length huNur77; no Nur77 adsorbed) of the same compound?
Answer: 59 ± 17

Question: And the fluorescence ([2]; Calcium, ferrous iron = 100)?
Answer: 47.6±3.7

Question: And the fluorescence ([2]; Cobalt, ferrous iron = 100)?
Answer: 25.4±2.3

Question: And the fluorescence ([2]; Control (no metal), ferrous iron = 100)?
Answer: 6.4±3.1

Question: What about the fluorescence ([2]; Copper, ferrous iron = 100) of the same compound?
Answer: 58.4±6.4

Question: And the fluorescence ([2]; Ferric iron, ferrous iron = 100)?
Answer: 94.1±6.6

Question: What about the fluorescence ([2]; Ferrous iron, set at 100, 400 ng/well) of the same compound?
Answer: 100±2.6

Question: And the fluorescence ([2]; Manganese, ferrous iron = 100)?
Answer: 54.4±11.2

Question: And the fluorescence ([2]; Ruthenium, ferrous iron = 100)?
Answer: 67.8±8.3

Question: And the fluorescence ([2]; Vanadium, ferrous iron = 100)?
Answer: 53.9±5.5

Question: And the fluorescence ([2]; Zinc, ferrous iron = 100)?
Answer: 71.4±8.3

Question: What about the “FITC-IM3 fluorescence, no competitor (PBS)” value ([3]; Calcium, set at 100) of the same compound?
Answer: 100.0 ± 1.9

Question: And the “FITC-IM3 fluorescence, no competitor (PBS)” value ([3]; Copper, calcium = 100)?
Answer: 53.0 ± 0.6

Question: What about the “FITC-IM3 fluorescence, no competitor (PBS)” value ([3]; Ferrous iron, calcium = 100) of the same compound?
Answer: 85.6 ± 5.8

Question: And the “FITC-IM3 fluorescence, no competitor (PBS)” value ([3]; Zinc, calcium = 100)?
Answer: 85.9 ± 5.5

Question: What about the “relative fluorescence, FITC-PI(4)P1 bound” value ([4]; cold PPI: 3,4,5-P3) of the same compound?
Answer: 1.2 percentage of the highest binder

Question: What about the “relative fluorescence, FITC-PI(4)P1 bound” value ([4]; cold PPI: 3,4-P2) of the same compound?
Answer: 2.4 percentage of the highest binder

Question: What about the “relative fluorescence, FITC-PI(4)P1 bound” value ([4]; cold PPI: 3,5-P2) of the same compound?
Answer: 5.6 percentage of the highest binder

Question: What about the “relative fluorescence, FITC-PI(4)P1 bound” value ([4]; cold PPI: 3-P1) of the same compound?
Answer: 2.5 percentage of the highest binder

Question: And the “relative fluorescence, FITC-PI(4)P1 bound” value ([4]; cold PPI: 4,5-P2)?
Answer: 0.1 percentage of the highest binder

Question: And the “relative fluorescence, FITC-PI(4)P1 bound” value ([4]; cold PPI: 4-P1)?
Answer: 2.4 percentage of the highest binder

Question: What about the “relative fluorescence, FITC-PI(4)P1 bound” value ([4]; cold PPI: 5-P1) of the same compound?
Answer: 1.9 percentage of the highest binder

Question: What about the “relative fluorescence, FITC-PI(4)P1 bound” value ([4]; cold PPI: None) of the same compound?
Answer: 2.5 percentage of the highest binder

Question: And the fluorescence ([5]; 100 ng/well RXRa-DBD, no FeCl3, no excess RXRa-DBD)?
Answer: 687.3 ± 55.4

Question: And the fluorescence ([5]; FeCl3 5 uM, 5X excess RXRa-DBD)?
Answer: 837.0 ± 30.5

Question: What about the fluorescence ([5]; FeCl3 5 uM, no excess RXRa-DBD) of the same compound?
Answer: 1161.3 ± 78.5
